Reference: US20240016718A1 (priority 2020, published 2024)
Values joined by “and” are separate entries in the source; they are usually repeats but may differ in a detail not shown here. Equal values may be shown once.

Key:
IL-1 alpha = tested on: IL-1 alpha; parameters: species or system Rhino mice (RHJ/LeJ); conditions: mouse, in vivo
fibroblasts = tested on: fibroblasts; parameters: species or system Rhino mice (RHJ/LeJ); conditions: mouse, in vivo
[1] = tested on: sebaceous lipids in sebum (fatty acid, squalene, cholesterol, wax esters, cholesteryl ester); parameters: species or system Rhino mice (RHJ/LeJ); conditions: mouse, in vivo
utriculi = tested on: utriculi; parameters: species or system Rhino mice (RHJ/LeJ); conditions: mouse, in vivo
Substance P = tested on: Substance P; parameters: species or system Rhino mice (RHJ/LeJ); conditions: mouse, in vivo
dorsal skin = conditions: Rhino (RHJ/LeJ), mouse, in vivo
epidermis (back skin) = conditions: Rhino (RHJ/LeJ), mouse, in vivo
keratinocytes = tested on: keratinocytes; parameters: species or system Rhino mice (RHJ/LeJ); conditions: mouse, in vivo
sebaceous glands = tested on: sebaceous glands; parameters: species or system Rhino mice (RHJ/LeJ); conditions: mouse, in vivo
[2] = tested on: dermis (inflammatory infiltrate); conditions: Rhino (RHJ/LeJ), mouse, in vivo
sebocytes = tested on: sebocytes; parameters: species or system Rhino mice (RHJ/LeJ); conditions: mouse, in vivo
back skin of Rhino mice = conditions: Rhino (RHJ/LeJ), mouse, in vivo

COc1ccc(-c2ccc3cc(C(=O)O)ccc3c2)cc1C12CC3CC(CC(C3)C1)C2 [Adapalene]
Decrease of IL-1 alpha level versus vehicle (IL-1 alpha): 96% | IL-1 alpha Concentration (IL-1 alpha): 50.4 ng/g tissue and 40.3 ng/g tissue and 45.1 ng/g tissue and 47.8 ng/g tissue and 69.3 ng/g tissue and 36.4 ng/g tissue | IL-1 alpha level in back skin (mean±SD) (IL-1 alpha): 47.7±11.5 ng/g tissue | Increase of Ki67 positive cells in dermis (fibroblasts) (fibroblasts): 43% | Ki67 positive cells per mm^2 (fibroblasts): 1229.8 cells per mm^2 and 1499.9 cells per mm^2 and 2072.0 cells per mm^2 and 1218.1 cells per mm^2 and 1088.8 cells per mm^2 and 1181.9 cells per mm^2 | Induction of increased excretion of fatty acid to the epidermis [1]: did not | Decrease in the surface area of the utriculi (utriculi): 94% | utriculi surface (utriculi): 515.3 μm^2 and 545.4 μm^2 and 585.7 μm^2 and 515.2 μm^2 and 806.1 μm^2 and 527.4 μm^2 and 605.0 μm^2 | Substance P concentration in back skin (Substance P): 335.5 pg/g tissue and 414.1 pg/g tissue and 453.4 pg/g tissue and 409.8 pg/g tissue and 403.9 pg/g tissue and 491.3 pg/g tissue | Thickening of the dorsal skin as compared to the vehicle group (dorsal skin): +14% | Increase in epidermis thickness (hyperplasia) (epidermis (back skin)): +188% | Increase of Ki67 positive cells in epidermis (keratinocytes) (keratinocytes): 30% | Ki67 positive cells per mm^2 (keratinocytes): 4411.7 cells per mm^2 and 4260.9 cells per mm^2 and 4248.9 cells per mm^2 and 3981.7 cells per mm^2 and 4121.7 cells per mm^2 and 4733.8 cells per mm^2 | Increase of sebaceous glands surface versus vehicle group (sebaceous glands): +82% | Increase of inflammation of the dermis [2]: +23% | Ki67 positive cells per mm^2 (sebocytes): 3722.1 cells per mm^2 and 4331.9 cells per mm^2 and 3916.9 cells per mm^2 and 3392.4 cells per mm^2 and 4299.5 cells per mm^2 and 2928.2 cells per mm^2 | Erythema mean score on dorsal skin (back skin of Rhino mice): 0.3-1.1 | Scaling mean score on dorsal skin (back skin of Rhino mice): 0.5-1.3
